According to PubChem BioAssay (NCI):
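Cultured in 96-well plates, cells were exposed to test compound for 48 hours across five concentrations. GI50 = concentration required for 50% inhibition of growth. TGI denotes the concentration required for complete inhibition of growth.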

What was measured:
Experiment in all cases: NCI tumour cell line growth inhibition, 48 h
HCT-15 colon = tested on: HCT-15 colon
HOP-62 NSCLC = tested on: HOP-62 NSCLC
KM12 colon = tested on: KM12 colon
NCI-H460 lung = tested on: NCI-H460 lung
OVCAR-3 ovarian = tested on: OVCAR-3 ovarian
SF-295 CNS = tested on: SF-295 CNS
SNB-75 CNS = tested on: SNB-75 CNS
HOP-92 NSCLC = tested on: HOP-92 NSCLC
RPMI-8226 leukemia = tested on: RPMI-8226 leukemia
TK-10 renal = tested on: TK-10 renal

## O=C1C=C(c2ccccc2)NC1(c1ccccc1)c1cc(-c2ccccc2)[nH]c1-c1ccccc1 (centres undefined)
HCT-15 colon
  TGI: > 100 µM
HOP-62 NSCLC
  TGI: 19 µM
KM12 colon
  TGI: > 100 µM
NCI-H460 lung
  TGI: > 100 µM
OVCAR-3 ovarian
  TGI: > 100 µM
SF-295 CNS
  TGI: > 100 µM
SNB-75 CNS
  TGI: > 100 µM

## O=C1c2ccccc2-n2c1nc1ccc([N+](=O)[O-])cc1c2=O
HCT-15 colon
  TGI: > 100 µM
HOP-62 NSCLC
  TGI: > 100 µM
HOP-92 NSCLC
  TGI: > 100 µM
KM12 colon
  TGI: > 100 µM
NCI-H460 lung
  TGI: > 100 µM
OVCAR-3 ovarian
  TGI: 99.7 µM
RPMI-8226 leukemia
  TGI: 84.4 µM
SF-295 CNS
  TGI: 79.7 µM
TK-10 renal
  TGI: > 100 µM

## Cc1ncc2c(n1)CCC1=C2OS(=O)(=O)CC1N(C)C (centres undefined)
HOP-62 NSCLC
  TGI: > 100 µM
KM12 colon
  TGI: > 100 µM
NCI-H460 lung
  TGI: > 100 µM
OVCAR-3 ovarian
  TGI: > 100 µM
RPMI-8226 leukemia
  TGI: > 100 µM
SNB-75 CNS
  TGI: > 100 µM
TK-10 renal
  TGI: > 100 µM

## CCCOC(=O)C1C(c2ccc(OC)cc2)NC(c2ccc(OC)cc2)C(C(=O)OCCC)S1(=O)=O (centres undefined)
HCT-15 colon
  GI50: > 100 µM
  TGI: > 100 µM
HOP-62 NSCLC
  GI50: > 100 µM
  TGI: > 100 µM
KM12 colon
  GI50: > 100 µM
  TGI: > 100 µM
OVCAR-3 ovarian
  GI50: > 100 µM
  TGI: > 100 µM
RPMI-8226 leukemia
  GI50: > 100 µM
  TGI: > 100 µM
SF-295 CNS
  GI50: > 100 µM
  TGI: > 100 µM
SNB-75 CNS
  GI50: > 100 µM
  TGI: > 100 µM
TK-10 renal
  GI50: > 100 µM
  TGI: > 100 µM

## O=C(O)CC(CC(=O)O)n1cccc1
HCT-15 colon
  TGI: > 100 µM
HOP-62 NSCLC
  TGI: > 100 µM
HOP-92 NSCLC
  TGI: > 100 µM
KM12 colon
  TGI: > 100 µM
NCI-H460 lung
  TGI: > 100 µM
OVCAR-3 ovarian
  TGI: > 100 µM
RPMI-8226 leukemia
  TGI: > 100 µM
SF-295 CNS
  TGI: > 100 µM
TK-10 renal
  TGI: > 100 µM

## O=C(/C=C/c1cccc(Cl)c1)c1ccccc1
HCT-15 colon
  GI50: 4.22 µM
  TGI: 22.7 µM
HOP-62 NSCLC
  GI50: 15.7 µM
  TGI: 29.9 µM
HOP-92 NSCLC
  GI50: 16.3 µM
  TGI: 32.8 µM
KM12 colon
  GI50: 1.96 µM
  TGI: 4.86 µM
NCI-H460 lung
  GI50: 4.86 µM
  TGI: 18 µM
OVCAR-3 ovarian
  GI50: 4.09 µM
  TGI: 15.4 µM
RPMI-8226 leukemia
  GI50: 3.09 µM
  TGI: 9.04 µM
SF-295 CNS
  GI50: 3.88 µM
  TGI: 18 µM
SNB-75 CNS
  GI50: 15.1 µM
  TGI: 28.6 µM

## CC1(C)CCOC(Sc2ccccc2)C1 (centres undefined)
HCT-15 colon
  TGI: > 100 µM
HOP-62 NSCLC
  TGI: > 100 µM
KM12 colon
  TGI: > 100 µM
NCI-H460 lung
  TGI: > 100 µM
OVCAR-3 ovarian
  TGI: > 100 µM
RPMI-8226 leukemia
  TGI: 91.3 µM
SF-295 CNS
  TGI: > 100 µM
SNB-75 CNS
  TGI: > 100 µM
TK-10 renal
  TGI: > 100 µM

## C[C@H]1CCC/C=C/[C@@H]2C[C@H](O)C[C@H]2[C@H](O)C(O)C(O)C(=O)O1 (some centres undefined)
HOP-62 NSCLC
  GI50: 4.85 µM
  TGI: > 100 µM
KM12 colon
  GI50: 0.396 µM
  TGI: 1.38 µM
NCI-H460 lung
  GI50: 2.65 µM
  TGI: > 100 µM
OVCAR-3 ovarian
  GI50: 2.35 µM
  TGI: 20.1 µM
RPMI-8226 leukemia
  GI50: 2.66 µM
  TGI: 14.9 µM
SF-295 CNS
  GI50: 4.66 µM
  TGI: > 100 µM
SNB-75 CNS
  GI50: 0.578 µM
TK-10 renal
  GI50: 6.42 µM
  TGI: > 100 µM

## COc1ccc(C2=NC(CO)[C@H](c3ccccc3)O2)cc1OC (some centres undefined)
HCT-15 colon
  TGI: > 100 µM
HOP-62 NSCLC
  TGI: > 100 µM
HOP-92 NSCLC
  TGI: > 100 µM
KM12 colon
  TGI: > 100 µM
NCI-H460 lung
  TGI: > 100 µM
OVCAR-3 ovarian
  TGI: > 100 µM
SF-295 CNS
  TGI: > 100 µM
SNB-75 CNS
  TGI: > 100 µM

## Cc1cc(N)c2cc(NC(=O)/C=C\c3ccccc3Cl)ccc2n1
HCT-15 colon
  GI50: 1.77 µM
  TGI: 3.27 µM
HOP-62 NSCLC
  GI50: 0.725 µM
  TGI: 1.73 µM
HOP-92 NSCLC
  GI50: 1.56 µM
  TGI: 3.27 µM
KM12 colon
  GI50: 0.767 µM
  TGI: 2.11 µM
NCI-H460 lung
  GI50: 1.19 µM
  TGI: 2.7 µM
OVCAR-3 ovarian
  GI50: 1.31 µM
  TGI: 2.7 µM
SF-295 CNS
  GI50: 1.31 µM
  TGI: 2.71 µM
SNB-75 CNS
  GI50: 1.7 µM
  TGI: 3.21 µM
TK-10 renal
  GI50: 2.11 µM
  TGI: 3.69 µM

## CCOC(=O)CCC(NC(=O)c1ccc(Oc2nc3cc(N)cc(N)c3nc2-c2ccccc2)cc1)C(=O)OCC (centres undefined)
HCT-15 colon
  GI50: 34.3 µM
  TGI: > 100 µM
HOP-62 NSCLC
  GI50: 36.6 µM
  TGI: 87.1 µM
HOP-92 NSCLC
  GI50: 30.1 µM
  TGI: > 100 µM
KM12 colon
  GI50: 27.4 µM
  TGI: > 100 µM
NCI-H460 lung
  GI50: 96.2 µM
  TGI: > 100 µM
OVCAR-3 ovarian
  GI50: 16.2 µM
  TGI: 41.2 µM
RPMI-8226 leukemia
  GI50: > 100 µM
  TGI: > 100 µM
SF-295 CNS
  GI50: 40.6 µM
  TGI: > 100 µM
TK-10 renal
  GI50: > 100 µM
  TGI: > 100 µM

## Oc1ccc(Br)cc1C=Nc1ccc(Oc2ccc(N=Cc3cc(Br)ccc3O)cc2)cc1
HOP-62 NSCLC
  TGI: > 19.6 µM
HOP-92 NSCLC
  TGI: > 19.6 µM
KM12 colon
  TGI: > 19.6 µM
NCI-H460 lung
  TGI: > 19.6 µM
OVCAR-3 ovarian
  TGI: > 19.6 µM
RPMI-8226 leukemia
  TGI: > 19.6 µM
SF-295 CNS
  TGI: > 19.6 µM
SNB-75 CNS
  TGI: > 19.6 µM
TK-10 renal
  TGI: > 19.6 µM

## Cc1c(C(=O)Nc2ccc(Oc3ccnc4cc(OCC(C)(C)O)ccc34)c(F)c2)c(=O)n(-c2ccccc2)n1C
HOP-62 NSCLC
  GI50: 19.4 µM
  TGI: > 100 µM
HOP-92 NSCLC
  GI50: 1.88 µM
  TGI: 22.2 µM
KM12 colon
  GI50: 0.226 µM
  TGI: > 100 µM
SF-295 CNS
  GI50: 0.782 µM
  TGI: > 100 µM
SNB-75 CNS
  GI50: 2.93 µM
  TGI: > 100 µM
TK-10 renal
  GI50: 9.9 µM
  TGI: > 100 µM

## O=C1OC(=O)c2c1cc1cc3c(cc1c2-c1ccc2c(c1)OCO2)OCO3
HCT-15 colon
  TGI: > 100 µM
HOP-92 NSCLC
  TGI: > 100 µM
KM12 colon
  TGI: > 100 µM
NCI-H460 lung
  TGI: > 100 µM
OVCAR-3 ovarian
  TGI: > 100 µM
RPMI-8226 leukemia
  TGI: > 100 µM
SF-295 CNS
  TGI: > 100 µM
SNB-75 CNS
  TGI: > 100 µM
TK-10 renal
  TGI: > 100 µM

## O=C(N/N=C/c1coc2ccc(Cl)cc2c1=O)c1cc(O)c(O)c(O)c1
HCT-15 colon
  GI50: 21.5 µM
  TGI: 79.7 µM
HOP-62 NSCLC
  GI50: 38.8 µM
  TGI: 89.4 µM
HOP-92 NSCLC
  GI50: 31.9 µM
  TGI: > 100 µM
KM12 colon
  GI50: 21.5 µM
  TGI: 69.1 µM
NCI-H460 lung
  GI50: > 100 µM
  TGI: > 100 µM
OVCAR-3 ovarian
  GI50: 40.4 µM
  TGI: > 100 µM
RPMI-8226 leukemia
  GI50: 28.5 µM
  TGI: > 100 µM
SF-295 CNS
  GI50: 45.8 µM
  TGI: > 100 µM
SNB-75 CNS
  GI50: 72 µM
  TGI: > 100 µM

## O=C1CC[C@@H]2[C@H]3CCC(=O)c4c3c(c3cccc(O)c3c4O)O[C@@]23C(=O)c2cccc(O)c2C(O)=C13
HCT-15 colon
  GI50: > 100 µM
  TGI: > 100 µM
HOP-62 NSCLC
  GI50: > 100 µM
  TGI: > 100 µM
KM12 colon
  GI50: > 100 µM
  TGI: > 100 µM
NCI-H460 lung
  GI50: > 100 µM
  TGI: > 100 µM
RPMI-8226 leukemia
  GI50: > 100 µM
  TGI: > 100 µM
SNB-75 CNS
  GI50: > 100 µM
  TGI: > 100 µM
TK-10 renal
  GI50: > 100 µM
  TGI: > 100 µM

## Cc1nc2ccccc2c(/C=C/c2ccc(C(F)(F)F)cc2)c1C(=O)/C=C/c1ccccc1
HCT-15 colon
  GI50: 1.1 µM
  TGI: 3.16 µM
HOP-62 NSCLC
  GI50: 1.64 µM
  TGI: 3.16 µM
HOP-92 NSCLC
  GI50: 1.32 µM
  TGI: 2.98 µM
NCI-H460 lung
  GI50: 1.13 µM
  TGI: 2.57 µM
OVCAR-3 ovarian
  GI50: 1.2 µM
  TGI: 2.52 µM
RPMI-8226 leukemia
  GI50: 0.999 µM
  TGI: 4.64 µM
SF-295 CNS
  GI50: 1.77 µM
  TGI: 3.22 µM
SNB-75 CNS
  GI50: 1.38 µM
  TGI: 2.81 µM
TK-10 renal
  GI50: 2.05 µM
  TGI: 3.63 µM
